Experimental data: PMC7503225, “Repositioning Dequalinium as Potent Muscarinic Allosteric Ligand by Combining Virtual Screening Campaigns and Experimental Binding Assays” (International Journal of Molecular Sciences, 2020)

Legend:
hM4 muscarinic receptor = molecular target: T1, hM4 muscarinic receptor (Homo sapiens, UniProt P08173); test: Equilibrium inhibition binding with [3H]-NMS, CHO cell membranes; conditions: [3H]-NMS 0.2 nM, CHO membranes, mean ± SEM of 3-4 experiments; read-out: pKi hM4 (converted)
T1 construct: expressed in transfected cells; host or cells: CHO cells, stably transfected; membrane fractions
T1 sequence (P08173 1-479): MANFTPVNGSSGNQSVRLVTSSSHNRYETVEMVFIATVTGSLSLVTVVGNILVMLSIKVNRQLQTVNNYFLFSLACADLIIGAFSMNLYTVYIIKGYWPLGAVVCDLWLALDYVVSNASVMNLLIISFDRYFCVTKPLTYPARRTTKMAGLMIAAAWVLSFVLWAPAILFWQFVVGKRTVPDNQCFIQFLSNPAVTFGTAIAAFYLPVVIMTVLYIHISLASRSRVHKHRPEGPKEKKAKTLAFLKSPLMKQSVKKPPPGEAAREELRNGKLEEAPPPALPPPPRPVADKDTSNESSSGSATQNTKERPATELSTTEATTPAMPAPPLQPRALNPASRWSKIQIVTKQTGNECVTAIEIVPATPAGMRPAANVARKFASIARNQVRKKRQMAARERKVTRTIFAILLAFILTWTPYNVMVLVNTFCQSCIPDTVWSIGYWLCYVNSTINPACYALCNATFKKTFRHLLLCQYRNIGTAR
How it was run: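 Membranes from CHO cells stably expressing the human subtype (25–70 µg/mL) incubated with [3H]-NMS for 2 h at room temperature, filtered and counted; nonspecific binding set with 10 µM atropine. IC50 from nonlinear fits converted to Ki; 3-4 independent experiments in duplicate.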

hM2 subtype = molecular target: T2, hM2 subtype (Homo sapiens, UniProt P08172); test: Full time course [3H]-NMS dissociation kinetic assay; format: binding; conditions: versus control, concentration 0.3 μM
T2 construct: expressed in transfected cells; host or cells: CHO cells, stably transfected; membrane fractions
T2 sequence (P08172 1-466): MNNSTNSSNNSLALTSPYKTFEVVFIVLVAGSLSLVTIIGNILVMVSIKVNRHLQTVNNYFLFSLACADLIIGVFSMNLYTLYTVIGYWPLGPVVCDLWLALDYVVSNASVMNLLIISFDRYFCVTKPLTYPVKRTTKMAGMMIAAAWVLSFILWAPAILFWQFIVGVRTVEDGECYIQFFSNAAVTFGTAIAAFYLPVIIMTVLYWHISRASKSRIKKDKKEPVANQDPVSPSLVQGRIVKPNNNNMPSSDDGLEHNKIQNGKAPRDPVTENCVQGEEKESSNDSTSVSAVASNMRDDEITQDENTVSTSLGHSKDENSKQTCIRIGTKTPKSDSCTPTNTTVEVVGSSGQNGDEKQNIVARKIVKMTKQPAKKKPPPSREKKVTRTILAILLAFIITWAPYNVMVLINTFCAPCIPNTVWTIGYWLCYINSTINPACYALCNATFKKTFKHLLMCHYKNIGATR
Method: All tested compounds were purchased from Merck KGaA (Darmstadt, Germany). The radioligand binding experiments were performed with membranes from Chinese Hamster Ovary (CHO) cells stably transfected with the five cloned human muscarinic receptor subtypes (hM1-5). Membrane fractions were prepared according to the protocol, which have been previously described; membranes were stored at −80 °C until use. Nonspecific binding was defined by the radioactivity bound in the presence of 10 µM atropine.
Dissociation binding assays were conducted in assay buffer at room temperature as above described. Membranes were preincubated with 2 nM [^3H]-NMS for 60 min at room temperature (mix membrane). […] Nonspecific binding was measured in separately prepared tubes containing 100 µL of mix membrane plus atropine 10 µM. […]
Radioligand dissociation rates in absence or in presence of the allosteric modulator were analyzed by non linear regression according to the equation for mono-exponential decay using GraphPad Prism 5.02.
All the results are expressed as means ± SEM obtained from 3-4 independent experiments each one performed in duplicate.

Compound `Cc1cc(N)c2ccccc2[n+]1CCCCCCCCCC[n+]1c(C)cc(N)c2ccccc21` [dequalinium] has a Ki (hM4 muscarinic receptor) of 69.2 nM and a t1/2 reduction (hM2 subtype) of 17.3 fold.
